Marks after values point to notes of the source that are not given here.
Experiments:
D. barberi [1] = experiment: Sticky trap attraction in prairie habitat, Trelease Woods (Example 2); type: in vivo, Diabrotica barberi; conditions: 100 mg per trap, n = 4
Procedure, shortened: (§1)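 Lure-dosed cotton wicks (solids in acetone; untreated controls) on TangleTrap-coated cartons atop 1 m posts, four replicates 10 m apart in relict prairie, mid-August over two years. Read-out: mean beetles caught after 24-h; log-transformed ANOVA with Duncan's multiple range test.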

D. u. howardi [2] = experiment: Sticky trap attraction along hybrid corn, Pomology South Farms (Example 2); type: in vivo, Diabrotica undecimpunctata howardi; conditions: August 7; 100 mg per trap; n = 4
Procedure: (§2) The candidate lures in all experiments were purchased commercially and exceeded 98% purity. The test chemicals were applied by capillary micropipettes to cotton dental wicks which were attached to the tops of 1.0 liter cylindrical paper cartons covered with TangleTrap™ (Tanglefoot Co., Grand Rapids, Mich.). The sticky trap techniques used were as described in Example 1. Cinnamyl alcohol and para-methoxycinnamaldehyde, which are solids, were dissolved in glass-distilled acetone prior to dosing the cotton wicks. All treatments were applied at a dosage of 100 mg per trap. 1,2,4-trimethoxybenzene, indole, and trans-cinnamaldehyde were mixed in a ratio of 1:1:1, by weight, immediately prior to dosing the cotton wicks. Control traps had untreated cotton wicks. Four replicates of treated and untreated traps were randomly positioned 10 meters apart on top of 1 m high posts along the border of a eight foot wide strip cut through the middle of a 4.05 ha relict prairie at Trelease Woods (ca. two miles northeast of Urbana, Ill.). The field consisted primarily of Andropogon gerardii Vitman (big bluestem) and a variety of composites. The tests were conducted in mid-August of two years and were timed to coincide with the presence of D. cristata and D. barberi adults in the flower heads of Canada thistle (Carduus arvensis Robson). In the second year, several new attractants of D. v. virgifera and D. barberi were tested in Trelease Woods and along the edge of a 0.8 ha field of hybrid corn located at the Pomology South Farms, Urbana, Ill. Attraction of Diabrotica species to the various lures was measured by the mean number of beetles caught after 24-h. On one date in late August of the first year, D. cristata and D. barberi were removed from the traps and sexed in the laboratory. The significance of treatments in all tests was determined by an analysis of variance and the individual means were separated by Duncan's multiple range test (Statistical Package for Social Science, Nie, et al., SPSS: statistical package for the social sciences, 2nd ed. McGraw-Hill, New York (1975). Data were logarithmically transformed for statistical analysis and the means and standard deviations are presented for the untransformed data.

[3] = tested on: southern corn rootworm (SCR) adults; experiment: Sticky trap attraction in corn, estragole analogues (Example 3); type: in vivo, Diabrotica undecimpunctata howardi; conditions: 100 mg per trap, n = 4
Procedure, shortened: (§3)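 Cotton wicks dosed with 100 mg or 100 μL attractant per trap on TangleTrap-coated cartons, four replicates 10 m apart on 1 m posts at field edges of hybrid or sweet corn. Mean beetles caught after ~24 h; log-transformed ANOVA with Duncan's test, P=0.05.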

WCR = conditions: in vivo; cited from earlier work
[4] = tested on: western corn rootworm (WCR) adults; conditions: in vivo; cited from earlier work
[5] = tested on: northern corn rootworm (NCR) adults; experiment: Sticky trap attraction in corn, estragole analogues (Example 3); type: in vivo, Diabrotica barberi; conditions: August 7 (Table 11); 100 mg per trap; n = 4
Procedure, shortened: as §3

D. barberi [6] = experiment: Sticky trap attraction along hybrid corn, Pomology South Farms (Example 2); type: in vivo, Diabrotica barberi; conditions: August 7; 100 mg per trap; n = 4
Procedure: as §2

D. v. virgifera [7] = experiment: as above; type: in vivo, Diabrotica virgifera virgifera; conditions: August 7; 100 mg per trap; n = 4
Procedure: as §2

[8] = tested on: western corn rootworm (WCR) adults; experiment: Sticky trap attraction in corn, estragole analogues (Example 3); type: in vivo, Diabrotica virgifera virgifera; conditions: 100 mg per trap
Procedure, shortened: as §3

D. cristata = experiment: Sticky trap attraction in prairie habitat, Trelease Woods (Example 2); type: in vivo, Diabrotica cristata; conditions: 100 mg per trap, n = 4
Procedure, shortened: as §1

D. u. howardi [9] = experiment: as above; type: in vivo, Diabrotica undecimpunctata howardi; conditions: 100 mg per trap, n = 4
Procedure, shortened: as §1

D. v. virgifera [10] = experiment: as above; type: in vivo, Diabrotica virgifera virgifera; conditions: 100 mg per trap, n = 4
Procedure, shortened: as §1

## C=CCc1ccc(OC)cc1 [I, 4-methoxy-1-allylbenzene]
D. barberi [1]; August 11, 1987
  Mean number of D. barberi per day (±standard deviation): 1.0 ± 2.0^a per day
D. barberi [1]; August 14, 1987
  Mean number of D. barberi per day (±standard deviation): 4.0 ± 0.8^b per day
D. barberi [1]; August 27, first year
  Mean number of D. barberi per sticky trap per day (±standard deviation): 6.5 ± 3.7^b per sticky trap per day
D. u. howardi [2]
  Mean number of D. u. howardi per stick trap per day (±standard deviation) in corn: 7.0 ± 4.5^a per stick trap per day
[3]; August 4 second year
  Mean number of SCR adults per sticky trap (±standard deviation) after 24 hours: 7.2 ± 5.1^a per sticky trap
[3]; August 5 first year
  Mean number of SCR adults per sticky trap (±standard deviation) after 24 hours: 9.2 ± 5.6^a per sticky trap
[3]; August 7 (Table 11)
  Mean number of SCR (±standard deviation) per sticky trap after 24 hours: 7.0 ± 4.5^a per sticky trap
WCR
  LR for WCR, most effective volatile attractants yet identified: 3 mg
[4]
  LR values for WCR attraction (literature): about 3 mg
[5]
  Mean number of NCR (±standard deviation) per sticky trap after 24 hours: 2.2 ± 2.1^ab per sticky trap
D. barberi [6]
  Mean number of D. barberi per stick trap per day (±standard deviation) in corn: 2.3 ± 2.1^ab per stick trap per day
D. v. virgifera [7]
  Mean number of D. v. virgifera per stick trap per day (±standard deviation) in corn: 64.0 ± 15.9^b per stick trap per day
[8]; August 4 second year, n = 4
  Mean number of WCR adults per sticky trap (±standard deviation) after 24 hours: 84.5 ± 19.7^d per sticky trap
[8]; August 5 first year, n = 4
  Mean number of WCR adults per sticky trap (±standard deviation) after 24 hours: 17.2 ± 7.8^c per sticky trap
[8]; August 7 (Table 11), n = 4
  Mean number of WCR (±standard deviation) per sticky trap after 24 hours: 64.0 ± 15.9^b per sticky trap
[8]; August 29
  Relative percent activity as compared with the highest mean in the column (WCR): 100%
[8]; August 29, n = 4
  Mean number of WCR per sticky trap (±standard deviation) after 24 hours: 147.2 ± 46.5 per sticky trap
[8]; July 30
  Relative percent activity as compared with the highest mean in the column (WCR): 100%
[8]; July 30, n = 4
  Mean number of WCR per sticky trap (±standard deviation) after 24 hours: 82.1 ± 8.6 per sticky trap
D. cristata; August 11, 1987
  Mean number of D. cristata per day (±standard deviation): 13.5 ± 4.1^b per day
D. cristata; August 14, 1987
  Mean number of D. cristata per day (±standard deviation): 13.0 ± 4.2^c per day
D. cristata; August 27, first year
  Mean number of D. cristata per sticky trap per day (±standard deviation): 5.3 ± 1.0^b per sticky trap per day
D. u. howardi [9]; August 11, 1987
  Mean number of D. u. howardi per day (±standard deviation): 0.3 ± 0.5^a per day
D. u. howardi [9]; August 14, 1987
  Mean number of D. u. howardi per day (±standard deviation): 0.5 ± 0.7^a per day
D. u. howardi [9]; August 27, first year
  Mean number of D. u. howardi per sticky trap per day (±standard deviation): 3.0 ± 2.8^a per sticky trap per day
D. v. virgifera [10]; August 11, 1987
  Mean number of D. v. virgifera per day (±standard deviation): 0.3 ± 0.5^a per day
D. v. virgifera [10]; August 14, 1987
  Mean number of D. v. virgifera per day (±standard deviation): 0.3 ± 0.5^a per day
D. v. virgifera [10]; August 27, first year
  Mean number of D. v. virgifera per sticky trap per day (±standard deviation): 0 per sticky trap per day

Reference: patent publication US6613317B1, “Volatile attractants for diabrotica species” (priority 1988, dated 2003)
